Measurements published in US20160303184A1, “VANCOMYCIN-SUGAR CONJUGATES AND USES THEREOF” (JAWAHARLAL NEHRU CENTRE FOR ADVANCED SCIENTIFIC RESEARCH …, priority 2013, published 2016).
In brackets after ≈: the same amount, converted by molar mass. Entries after “also recorded” stand apart in the source; their conditions may differ. Read-outs that look alike come from different tables or passages of the source.

Columns and labels:
[1] = system: methicillin-resistant S. epidermidis clinical isolate; assay: MIC, clinical isolate of methicillin-resistant S. epidermidis; format: cell-based; settings: Staphylococcus epidermidis, read-out: MIC S. epidermidis
[2] = system: Vancomycin-resistant E. faecalis (VanA, ATCC 51575); assay: MIC, micro-dilution broth, VRE (VanB); format: cell-based; settings: Enterococcus faecalis, read-out: MIC VRE (VanB)
[3] = system: methicillin-resistant S. aureus clinical isolate; assay: MIC, clinical isolate of methicillin-resistant S. aureus; format: cell-based; settings: Staphylococcus aureus, read-out: MIC S. aureus
Experimental: All test compounds were assayed in a micro-dilution broth format. Stock solutions were made by serially diluting the compounds using autoclaved millipore water or broth media. The antibacterial activity of the compounds was determined against methicillin-sensitive S. aureus (MSSA), methicillin-resistant S. aureus (MRSA), vancomycin-intermediate-resistant S. aureus (VISA), vancomycin-sensitive E. faecium (VSE) and vancomycin-resistant E. faecium (VRE). Bacteria, to be tested, were grown for about 10 h in the suitable media, MSSA, MRSA and VISA were grown in yeast-dextrose broth (about 1 g of beef extract, about 2 g of yeast extract, about 5 g of peptone and about 5 g of NaCl in about 1000 mL of sterile distilled water (pH-7)). For solid media, about 5% agar was used along with above mentioned composition. VSE and VRE were cultured in brain heart infusion broth (Himedia). The bacterial samples were freeze dried and stored at −80° C. About 5 μL of these stocks were added to about 3 mL of the nutrient broth and the culture was grown for about 6 h at about 37° C. prior to the experiments. This 6 h grown culture gives about 10^9 cfu/mL and this was determined by spread plating method. The 6 h grown culture was diluted to give effective cell concentration of about 10^5 cfu/mL which was then used for determining MIC. Compounds were serially diluted, in sterile water (2 fold dilution is employed) in a way that the working concentration was about 10 μM for MSSA, MRSA, and VSE while for VRE and VISA it was about 100 μM. About 50 μL of these serial dilutions were added to the wells of 96 well plate followed by the addition of about 150 μL of bacterial solution. The plates were then incubated at about 37° C., 150 rpm in the incubator and O.D at 600 nm was recorded at an interval of about 10 h and 24 h using TECAN (Infinite series, M200 pro) Plate Reader. Each concentration had triplicate values and the whole experiment was done at least twice and the MIC value was determined by taking the average of triplicate. O. D. values for each concentration and plotting it against concentration. The data was then subjected to sigmoidal fitting. From the curve the MIC value was determined, as the point in the curve where the O. D. was similar to that of control having no bacteria.

[4] = Acute toxicity (blood biochemistry, liver and kidney histology); format: in vivo, mice; settings: 12 mg/kg i.v.
Experimental: For the evaluation of the acute toxicity, two groups of 10 mice each received intravenous injection of compound 7 at 12 mg/kg in 0.2 ml of sterilized saline. 10 mice were sacrificed at 48 h and the rest mice at 14 days to collect blood samples for analysis of biochemical parameters such as alanine transaminase (ALT), alkaline phosphatase (ALP), urea nitrogen, creatinine, sodium ion, potassium ion and chloride ion levels. Blood samples were analyzed at Gokula Metropolis clinical laboratory, Bengaluru, India. And also to examine the adverse effects of compound 7 in tissue level, we have isolated liver and kidney organs in 10% neutral formalin. Tissues were processed by dehydration in ascending grades of ethyl alcohol, clearing in xylol, embedding in paraffin wax and prepared sections of 5 μm thickness. Then paraffin sections were stained using haematoxylin and eosin, and observed under light microscope for histological changes.

[5] = Single dose pharmacokinetics; format: in vivo, CD-1 female mice; design: clearance: unit not given here; settings: 12 mg/kg single i.v., mice, plasma
Experimental: A single dose pharmacokinetic analysis of compound 7 was performed in CD-1 female mice. Mice were administered a single intravenous dose of 12 mg/kg. Blood samples were collected from mice by retro-orbital aspiration and placed into heparinized tubes at different time intervals after dosing. The plasma was separated by centrifugation, and drug plasma concentrations were measured by microbiologic assay with Bacillus subtilis as the test organism. The lower limit of detection of the assay was 0.6 μg/ml. Pharmacokinetic parameters, including half-life, AUC and Cmax were calculated by using non-compartmental model.

MR-VISA = assay: Pharmacodynamics against MR-VISA thigh infection, single dose; format: in vivo, Staphylococcus aureus; settings: single i.v. dose; for ED50: 50% maximal bacterial killing; for EDstasis: 24-h colony count similar to pretreatment count
Experimental: Data are expressed as means±SD (error bars). A separate single-dose study of compound 7 was performed in neutropenic mice inoculated in the thigh with 50 μL of MR-VISA (10^7 CFU/ml). Infected animals were treated intravenously, at 1 h post infection, with 2 mg/kg, 4 mg/kg, 8 mg/kg and 12 mg/kg. At 24 h post inoculation mice were sacrificed and the thigh tissues were harvested for determination of bacterial titer as mentioned above.

VISA = assay: In-vivo time dependent whole blood assay; design: species or system S. aureus; settings: 12 mg/kg single i.v., CD-1 mice
Experimental: The derivative 7 and vancomycin were administered in a single intravenous injection (0.2 mL saline) to normal pathogen-free, female CD-1 mice. Doses of 12 mg kg^−1 were administered to three mice per data point. At the specified time-points (0, 3, 6, 12, 24 and 48 h) mice were euthanized (using ether), blood samples were collected from the ocular puncture. 60 μL of VISA in saline (0.9% NaCl; 10^6 CFU/mL) was added to 540 μL of whole blood which was drawn from the mice and incubated at 37° C. for 3 h. After the incubation period, antibacterial activity was determined by finding the bacterial titer in the infected blood.

Compound: CCCCCCCCCCN[C@]1(C)C[C@H](OC2C(O)[C@@H](O)C(CO)O[C@@H]2Oc2c3cc4cc2Oc2ccc(cc2Cl)[C@@H](O)[C@@H](NC(=O)[C@@H](CC(C)C)NC)C(=O)N[C@@H](CC(N)=O)C(=O)N[C@H]4C(=O)N[C@H]2C(=O)N[C@H](C(=O)N[C@H](C(=O)NCCCNC(=O)[C@H](O)[C@@H](O)[C@H](OC4OC(CO)C(O)C(O)[C@H]4O)[C@H](O)CO)c4cc(O)cc(O)c4-c4cc2ccc4O)[C@H](O)c2ccc(c(Cl)c2)O3)OC(C)[C@@H]1O (stereo partly drawn) [Compound 7]
- MIC [1]: 0.3 µM (≈ 0.596 µg/mL)
- MIC [2]: 1 µM (≈ 1.99 µg/mL)
- MIC [3]: 0.3 µM (≈ 0.596 µg/mL)
- acute damage to liver and kidney functions ([4]; 48 h and 14 days): did not cause any significant acute damage; also recorded: no significant acute damage
- Chloride ion ([4]; 48 h post-treatment): 112.9 ± 1.52 mmol/L
- Kidney Creatinine ([4]; 48 h post-treatment): 0.2 ± 0.133 mg/dL
- Liver ALT ([4]; 48 h post-treatment): 55.23 ± 5.24 U L^−1
- Potassium ion ([4]; 48 h post-treatment): 6.86 ± 0.81 mmol/L
- Sodium ion ([4]; 48 h post-treatment): 143.63 ± 1.65 mmol/L
- Urea Nitrogen ([4]; 48 h post-treatment): 19.52 ± 3.25 mg/dL
- Chloride ion ([4]; 14 days post treatment): 110.85 ± 2.16 mmol/L
- Kidney Creatinine ([4]; 14 days post treatment): 0.22 ± 0.1 mg/dL
- Liver ALT ([4]; 14 days post treatment): 53.28 ± 3.78 U L^−1
- Potassium ion ([4]; 14 days post treatment): 6.75 ± 0.833 mmol/L
- Sodium ion ([4]; 14 days post treatment): 143.04 ± 0.71 mmol/L
- Urea Nitrogen ([4]; 14 days post treatment): 24.46 ± 4.93 mg/dL
- gross anatomical and histopathological examination of liver and kidney sections ([4]; compared to control): no significant changes
- Cmax [5]: 703 µg/mL
- Cmin [5]: 1.7 µg/mL
- half-life ([5]; female, CD-1, mouse, iv): 2.76 h
- AUC(0-t) ([5]; female, CD-1, mouse, iv, read-out: AUC0-24 h): 562 µg·h/mL
- Cmax ([5]; female, CD-1, mouse, iv, 12 mg/kg, read-out: Cmax): 703 µg/mL
- clearance ([5]; female, CD-1, mouse, iv): 4.17
- AUC ([5]; female, CD-1, mouse, iv, 0.083 h to 24 h): 562 µg·h/mL
- ED50 (MR-VISA; Staphylococcus aureus, VISA, in Mus musculus, iv, 24 h, neutropenic mice thigh, 24 h, read-out: ED50): 1.05 mg/kg
- ED1-log kill (MR-VISA; neutropenic mice thigh, 24 h): 3.7 mg/kg
- ED2-log kill (MR-VISA; neutropenic mice thigh, 24 h): 8.8 mg/kg
- ED2.6-log kill (MR-VISA; neutropenic mice thigh, 24 h): 12 mg/kg
- ED50 (MR-VISA; neutropenic mice thigh, 24 h): 1.0 mg/kg
- EDstasis (MR-VISA): 2.2 mg/kg
- EDstasis (MR-VISA; listed as compound 7): 2.22 mg/kg
- CFU/mL reduction (VISA; blood drawn up to 24 h, VISA): 3 log10 CFU/mL
- time after dosing up to which blood showed antibacterial activity (VISA; blood incubated with VISA 3 h): 24 h
